Series [1] is described as follows: Pharmacokinetics of compound A after conventional formulation (elimination half-life; absorption by deconvolution). The conditions noted are these: human, in vivo; read-out: elimination half-life (T1/2). The source says:
Taking into consideration the results of the clinical trial described above, the present inventors conducted intensive studies to design the formulation by paying attention to the control of a release rate of the drug from a formulation to the extent that the release is not affected by food intake or the like, rather than the addition of release control.
On the basis of blood concentration profiles (in a fasted state/after the intake of food) after administration of a conventional formulation (immediate release formulation), the absorption rate of the drug in a fed state was calculated by a deconvolution method to predict continuous absorption for about 4 hours.

Series [2] can be described thus: Pharmacokinetics (PK) test of immediate release formulation (capsule formulation) in human. The conditions noted are these: healthy subjects, immediate release capsules, 0.1 to 340 mg. The class given is in vivo. The procedure: The immediate release formulations (capsule formulations) containing 0.1 mg, 1 mg, 5 mg, 20 mg, and 80 mg of the compound A were used in combinations as needed so that the dose of compound A became 0.1 mg, 1 mg, 3 mg, 10 mg, 30 mg, 100 mg, 160 mg, 240 mg, and 340 mg.

Turning to `Nc1nc(CC(=O)Nc2ccc(CCNC[C@H](O)c3ccccc3)cc2)cs1` [Compound A, (R)-2-(2-aminothiazol-4-yl)-4′-[2-[(2-hydroxy-2-phenylethyl)amino]ethyl]acetic acid anilide], the half-life in series [1] was 18 to 24 h. Further, the “relation between Cmax and the increase in heart rate from the base line” value in series [2] is reported as “positive correlation”.

Source of the values: patent US8877214B2, “Pharmaceutical composition for modified release” (Astellas Pharma Inc., priority 2010, dated 2014).
